Read-outs that look alike come from different tables or passages of the source.
How the values were obtained:
[1] = MTD and pharmacokinetics and brain penetration after PO administration; type: in vivo, Male C57BL/6 Mice; settings: male; for Kp / Kp uu: Mouse; for AUC(0-t): C57BL/6
Protocol: Example 30: MTD and Pharmacokinetics and Brain Penetration Experiment to Determine Brain and Plasma Concentration of Compounds after PO Administration to Male C57BL/6 Mice
The study was designed with 2 groups (18 animals and 24 animals) consists of administrating the drug [PO-50, 100, 150, 225, 300 mg/kg via oral gavage] and collecting samples at terminal bleeding for plasma, brain and CSF at 0.25, 0.5, 1, 4, 8, and 24 hr. All PO dosing solutions were prepared in 50 mM citrate buffer (pH 4.0).
The blood collection was performed as follows: the animal was restrained manually at the designated time points, approximately 500 μL of blood sample was collected via cardiac puncture vein into EDTA-2K tubes. The whole blood needed to be divided into two parts; one part was placed in the tube containing EDTA-2K for plasma generation and the other was used for the hematology assay, respectively. The blood samples for plasma generation were maintained in wet ice first and centrifuged to obtain plasma (2000 g, 4° C., 5 min) within 15 minutes post sampling. The brain collection was performed as follows: a mid-line incision was made in the animal's scalp and the skin was retracted. Using small bone cutters and rongeurs, the skull overlying the brain was removed. The brain was removed using a spatula and rinsed with cold saline. The brain was placed in screw-top tubes, and then stored at −70° C. until analysis. The CSF collection was performed as follows: a mid line incision was made on the neck. The muscle under the skin was cut to expose the cisterna magna. The cisterna magna was penetrated with the sharp end of one capillary (Burn one end of capillary to make it sharp). The CSF was sucked spontaneously into the capillary.
Plasma Sample Preparation:
An aliquot of 30 μL sample was added with 100 μL MeCN containing 100 ng/mL IS (Dexamethasone). The mixture was vortexed for 10 min and centrifuged at 5800 rpm for 10 min. An aliquot of 40 μL supernatant was added to 40 μL H2O and the mixture was vortexed for 5 min. An aliquot of 2 μL supernatant was injected for LC-MS/MS analysis.
Brain Sample Preparation:
An aliquot of 30 μL brain homogenate (brain:PBS=1:3, w/v) sample was added to 100 μL MeCN containing 100 ng/mL IS (Dexamethasone). The mixture was vortexed for 10 min and centrifuged at 5800 rpm for 10 min. An aliquot of 40 μL supernatant was added to 40 μL H2O and the mixture was vortexed for 5 min. An aliquot of 2 μL supernatant was injected for LC-MS/MS analysis.
An aliquot of 3 μL sample was added to a mixture of 6 CSF, 9 μL MeOH/H2O (1/1), 40 μL MeCN containing 200 ng/mL IS (Dexamethasone), and 116 μL H2O. The mixture was vortexed for 5 min. An aliquot of 4 μL was injected for LC-MS/MS analysis.
(§1) The sample analysis was performed on UPLC-MS/MS-02 (Triple Quad 4000) under the following conditions: positive ion, ESI, MRM detection using dexamethasone as internal standard. HPLC conditions: mobile phase A: H2O-0.1% formic acid, mobile phase B: MeCN-0.1% formic acid on: ACQUITY UPLC HSS T3 (2.1×50 mm, 1.8 μm) at 60° C.

[2] = Pharmacokinetics after intravenous or oral administration to dogs; type: in vivo; settings: male, beagle, plasma, dog
Protocol: Example 32: Pharmacokinetics of Compounds After Intravenous or Oral Administration to Male Beagle Dogs
The study design (9 animals, fasted overnight and fed at 4 h post dosing) consists of administrating the drug [IV: 1 mg/kg via cephalic vein injection], [PO: 3 mg/kg and 10 mg/kg via oral gavage] and collecting samples at serial bleeding for plasma at 0.03, 0.08, 0.25, 0.5, 1, 2, 4, 8, 24, 48 and 72 hr. The IV and PO dosing solutions were prepared in 50 mM citrate buffer (pH 4.0) at 0.5 mg/mL, 1.5 mg/mL and 5 mg/mL, respectively. The blood collection was performed as follows: the animals were restrained manually, and approx. 0.5 mL blood/time point was collected from the cephalic vein into pre-cooled K2EDTA tubes. Blood samples were put on wet ice and centrifuged at 4° C. to obtain plasma within 15 minutes of sample collection. All samples were stored at approximately −70° C. until analysis.
Plasma Samples Preparation:
An aliquot of 30 μL sample was added to 100 MeCN containing 200 ng/mL IS (Dexamethasone). The mixture was vortexed for 10 min and centrifuged at 5,800 rpm for 10 min. An aliquot of 30 μL supernatant was added to 60 μL H2O and the mixture was vortexed for 5 min. An aliquot of 4 μL supernatant was injected for LC-MS/MS analysis.
as §1, with “performed using” for “performed on”, “H2O-0.1% FA,” for “H2O-0.1% formic acid,”, “B: ACN-0.1% FA on” for “B: MeCN-0.1% formic acid on:”, “μm) column” for “μm)”

[3] = C57BL/6, brain and plasma, single administration, D1-50 mg/kg PO
[4] = C57BL/6, brain, multiple administration, D5-300 mg/kg PO

## CN1CCN(c2cccc3nc([C@H]4CCC[C@@H](c5ncccc5Cl)N4)cn23)CC1 (single isomer, unassigned) [Compound I-188]
[1]; [3]
  Kp: 2.49
  Kp uu: 0.94
[1]; [4]
  Kp: 5.61
  Kp uu: 2.12
[1]; Mouse brain, multiple administration, D5-300 mg/kg PO, read-out: AUClast (b)
  AUC(0-t): 430000 ng·h/mL
[1]; Mouse brain, single administration, D1-50 mg/kg PO, read-out: AUClast (b)
  AUC(0-t): 58600 ng·h/mL
[1]; Mouse plasma, multiple administration, D5-300 mg/kg PO, read-out: AUClast (p)
  AUC(0-t): 76600 ng·h/mL
[1]; Mouse plasma, single administration, D1-50 mg/kg PO, read-out: AUClast (p)
  AUC(0-t): 23500 ng·h/mL
[2]; IV: 1 mg/kg
  clearance: 19.8 mL/min/kg
  half-life: 27.3 h
  AUC: 722 ng·h/mL
[2]; IV: 1 mg/kg, read-out: Vss
  Vd: 39 L/kg
[2]; PO: 3 mg/kg
  Cmax: 46.1 ng/mL
  bioavailability: 65%
  half-life: 27.3 h
  AUC: 1420 ng·h/mL
[2]; PO: 10 mg/kg
  Cmax: 280 ng/mL
  bioavailability: 97.8%
  half-life: 23.2 h
  AUC: 7500 ng·h/mL
